How the values were obtained:
Type in all cases: physicochemical
[1] = Release experiment: nicotine released from NPR (16%) in water with varying equivalents of CaCl2 (Example 6B); conditions: nicotine 28 mg/L, 25 degrees Celsius, 100 rpm, HPLC
Protocol: (§1) The release experiment was performed by adding NPR (16%) and varying equivalent of CaCl2 to a volume of water corresponding to a nicotine concentration of 28 mg/L. The equivalents of CaCl2 are relative to nicotine. The temperature of the water was 25 degrees Celsius throughout the experiment and stirring of 100 rpm was applied throughout the experiment. pH was measured at experiment start and end. The pH was in all experiments below 7.0 at both the start and end of the experiment.
(§2) A relative low nicotine concentration is used in order to reduce the impact of equilibrium on both the release rate and effective release of nicotine from the ion-exchange resin.
(§3) Samples were taken out at varying timepoints and analyzed for nicotine content using standard HPLC. The result is presented as percentage of nicotine released.

[2] = Release experiment: nicotine released from NPR (16%) in water with varying salts (CaCl2, NaCl) and equivalents (Example 6A); conditions: NPR (16%) in 900 mL water, nicotine 28 mg/L, 25 degrees Celsius, 100 rpm, HPLC
[3] = Release experiment: nicotine released from nicotine premixes of varying nicotine content with 1 equivalent of CaCl2 (Example 6D); conditions: nicotine premix, 1 equivalent CaCl2, water, nicotine 28 mg/L, 25 degrees Celsius, 150 rpm, HPLC
Protocol: The release experiment was performed by adding nicotine premix having varying content of nicotine and 1 equivalent of CaCl2 to a volume of water, whereby a corresponding nicotine concentration of 28 mg/L is obtained. The equivalent of CaCl2 is relative to nicotine. The temperature of the water was 25 degrees Celsius throughout the experiment and stirring of 150 rpm was applied throughout the experiment. pH was measured at experiment start and end. The pH was in all experiments below 7.0 at both the start and end of the experiment.
as §2, §3

[4] = Release experiment: nicotine released from NPR (16%) in water with varying equivalents of MgCl2 (Example 6C); conditions: nicotine 28 mg/L, 25 degrees Celsius, 100 rpm, HPLC
Protocol: as §1, with “varying equivalents” for “varying equivalent”, “of MgCl2” for “of CaCl2”
as §2, §3

[5] = Release experiment: nicotine released from NPR (16%) in water with 1 equivalent of AlCl3 (Example 6E); conditions: 1 equivalent AlCl3, water, nicotine 28 mg/L, 25 degrees Celsius, 150 rpm, HPLC
Protocol: as §1, with “1” for “varying”, “AlCl3” for “CaCl2”, “equivalents” for “equivalents of CaCl2”, “150” for “100”
as §2, §3

## [Ca+2].[Cl-].[Cl-] [CaCl2]
[1]
  effect of CaCl2 on release of nicotine from NPR: significantly increases the release of nicotine
[2]
  effect of the salt on release of nicotine from NPR: significantly increases the release of nicotine
[3]
  effect of CaCl2 on release of nicotine from premixes: significantly increases the release of nicotine

## [Cl-].[Cl-].[Mg+2] [MgCl2]
[4]
  effect of MgCl2 on release of nicotine from NPR: significantly increases the release of nicotine

## [Cl-].[Na+] [NaCl, reference compound]
[2]
  effect of the salt on release of nicotine from NPR: much lower effect on the release of nicotine

## [Cl][Al]([Cl])[Cl] [AlCl3]
[5]
  effect of AlCl3 on release of nicotine from NPR: significantly increases the release of nicotine
